Laboratory results as given in ChEMBL document CHEMBL1201862, “PubChem BioAssay data set” (2004).
The source made the active and inactive calls.

Columns and labels:
[1] = HEK-293T viability loss after treatment – luminescence, T-cell screen hits, cytotoxicity control for TCR NF-kB inhibitor project, dose response (AID 489026); format: functional, cell-based;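 also: cells exposed to compound about 14 hours before the viability readout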
[2] = target: T1, Coagulation factor XII (Homo sapiens, UniProt P00748); format: functional;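 also: activated factor XIIa alpha cleaving a fluorogenic AMC peptide substrate; inhibitor potency from loss of enzyme activity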
T1 sequence (P00748 whole entry): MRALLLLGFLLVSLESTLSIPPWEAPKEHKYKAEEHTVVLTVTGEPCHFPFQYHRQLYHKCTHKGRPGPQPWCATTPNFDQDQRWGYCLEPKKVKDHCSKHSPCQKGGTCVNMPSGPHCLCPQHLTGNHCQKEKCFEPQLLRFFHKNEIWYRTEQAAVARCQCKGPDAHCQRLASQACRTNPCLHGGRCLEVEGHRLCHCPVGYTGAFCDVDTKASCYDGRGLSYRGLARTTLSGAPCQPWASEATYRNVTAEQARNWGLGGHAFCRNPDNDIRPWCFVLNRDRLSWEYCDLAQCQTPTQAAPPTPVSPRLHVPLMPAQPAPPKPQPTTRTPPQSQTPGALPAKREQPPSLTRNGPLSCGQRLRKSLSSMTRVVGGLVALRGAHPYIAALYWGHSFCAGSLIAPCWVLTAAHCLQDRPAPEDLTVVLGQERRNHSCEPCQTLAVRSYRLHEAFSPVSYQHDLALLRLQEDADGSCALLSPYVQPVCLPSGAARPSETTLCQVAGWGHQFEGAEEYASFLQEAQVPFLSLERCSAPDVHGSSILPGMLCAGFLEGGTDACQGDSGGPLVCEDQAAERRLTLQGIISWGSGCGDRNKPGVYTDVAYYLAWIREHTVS

[3] = target: Cytochrome P450 3A4 (Homo sapiens, UniProt P08684); settings: Potency;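 also: confirmatory qHTS run detecting inhibitors and substrates of CYP3A4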
Cytochrome P450 3A4, sequence (P08684 whole entry): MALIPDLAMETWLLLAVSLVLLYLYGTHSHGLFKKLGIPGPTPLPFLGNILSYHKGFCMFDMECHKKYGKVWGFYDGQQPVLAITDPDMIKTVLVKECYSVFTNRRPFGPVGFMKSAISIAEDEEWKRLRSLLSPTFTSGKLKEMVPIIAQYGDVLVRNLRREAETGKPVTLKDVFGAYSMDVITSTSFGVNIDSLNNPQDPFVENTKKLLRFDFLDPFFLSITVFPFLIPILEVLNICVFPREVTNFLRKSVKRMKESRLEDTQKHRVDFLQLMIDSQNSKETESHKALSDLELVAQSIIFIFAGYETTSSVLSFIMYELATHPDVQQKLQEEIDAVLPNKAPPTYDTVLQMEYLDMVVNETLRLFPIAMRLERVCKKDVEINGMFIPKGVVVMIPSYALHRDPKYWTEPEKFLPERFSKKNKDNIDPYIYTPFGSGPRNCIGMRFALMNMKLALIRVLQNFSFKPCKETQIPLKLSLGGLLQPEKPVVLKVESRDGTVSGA

[4] = target: T2, Estrogen receptor (Homo sapiens, UniProt P03372);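 also: potency for inhibiting coactivator peptide recruitment to the receptor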
T2 sequence (P03372 whole entry): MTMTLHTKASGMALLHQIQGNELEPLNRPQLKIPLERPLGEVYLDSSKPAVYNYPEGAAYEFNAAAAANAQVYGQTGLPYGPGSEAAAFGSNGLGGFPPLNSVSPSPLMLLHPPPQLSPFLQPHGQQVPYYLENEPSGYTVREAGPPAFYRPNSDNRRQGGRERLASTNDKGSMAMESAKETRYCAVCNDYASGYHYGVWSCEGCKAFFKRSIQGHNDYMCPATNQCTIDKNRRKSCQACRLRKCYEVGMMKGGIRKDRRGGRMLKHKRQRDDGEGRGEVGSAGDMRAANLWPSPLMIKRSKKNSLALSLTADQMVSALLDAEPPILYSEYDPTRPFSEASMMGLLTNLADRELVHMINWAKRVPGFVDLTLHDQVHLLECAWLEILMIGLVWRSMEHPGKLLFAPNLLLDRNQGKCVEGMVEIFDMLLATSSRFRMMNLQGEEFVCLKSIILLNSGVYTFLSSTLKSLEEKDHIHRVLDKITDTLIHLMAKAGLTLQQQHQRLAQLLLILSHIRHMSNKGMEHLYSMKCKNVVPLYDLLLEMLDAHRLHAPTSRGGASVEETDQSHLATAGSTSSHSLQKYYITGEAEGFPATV

[5] = test system: Escherichia coli; test: microbe, parasite or virus in culture
[6] = HEK-293T cell viability reduction – luminescence, B-cell screen hits, cytotoxicity control for BCR NF-kB inhibitor project, dose response (AID 489021); format: functional, cell-based;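 also: HEK-293T cells carrying an NF-kB luciferase reporter; cells exposed to compound for about 14 hours before viability readout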
[7] = target: SUMO-activating enzyme (Homo sapiens, UniProt Q9UBT2); test: blockers of UBC9-mediated SUMO conjugation – biochemical, AlphaScreen, SUMOylation inhibitor project, confirmation (AID 2018); format: functional
SUMO-activating enzyme, sequence (Q9UBE0 whole entry): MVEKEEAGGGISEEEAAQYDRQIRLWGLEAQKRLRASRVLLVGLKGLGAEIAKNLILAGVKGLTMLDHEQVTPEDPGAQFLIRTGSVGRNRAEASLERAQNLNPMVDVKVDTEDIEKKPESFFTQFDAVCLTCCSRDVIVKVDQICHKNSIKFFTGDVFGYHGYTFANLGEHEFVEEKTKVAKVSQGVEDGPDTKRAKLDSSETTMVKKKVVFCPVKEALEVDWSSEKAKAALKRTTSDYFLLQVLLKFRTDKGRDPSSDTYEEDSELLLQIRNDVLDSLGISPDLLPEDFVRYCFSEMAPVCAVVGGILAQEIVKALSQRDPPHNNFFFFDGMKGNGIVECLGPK
SUMO-activating enzyme, sequence (Q9UBT2 whole entry): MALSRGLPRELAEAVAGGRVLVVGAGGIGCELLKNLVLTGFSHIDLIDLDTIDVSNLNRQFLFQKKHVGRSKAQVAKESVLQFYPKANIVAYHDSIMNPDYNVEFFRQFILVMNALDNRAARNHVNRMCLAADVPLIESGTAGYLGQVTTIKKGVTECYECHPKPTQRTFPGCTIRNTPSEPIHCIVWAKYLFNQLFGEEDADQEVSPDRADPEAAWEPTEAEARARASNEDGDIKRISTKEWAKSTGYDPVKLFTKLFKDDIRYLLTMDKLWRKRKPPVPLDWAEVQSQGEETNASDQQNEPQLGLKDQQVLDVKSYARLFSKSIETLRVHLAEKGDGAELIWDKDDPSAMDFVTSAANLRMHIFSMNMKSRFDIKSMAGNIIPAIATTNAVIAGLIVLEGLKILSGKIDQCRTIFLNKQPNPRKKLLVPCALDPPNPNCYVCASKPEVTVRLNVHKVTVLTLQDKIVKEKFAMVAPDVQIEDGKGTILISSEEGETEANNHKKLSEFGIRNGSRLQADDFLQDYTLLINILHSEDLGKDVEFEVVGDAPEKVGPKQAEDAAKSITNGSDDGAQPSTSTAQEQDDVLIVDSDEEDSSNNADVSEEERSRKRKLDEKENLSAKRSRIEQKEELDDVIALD

[8] = test system: INS1; test: INS-1E survival protection against cytokine death – cell-based, luminescence, retest, dose response (AID 449756); format: functional; settings: Rattus norvegicus;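 also: cell death triggered by IL-1 beta plus TNF-alpha plus IFN-gamma mixture; protective hits raise ATP signal compared with cytokine alone wells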
[9] = target: Voltage-dependent T-type calcium channel subunit alpha-1H (Homo sapiens, UniProt O95180); format: functional;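 also: channel activity triggered by adding a high calcium stimulation buffer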
Voltage-dependent T-type calcium channel subunit alpha-1H, sequence (O95180 whole entry): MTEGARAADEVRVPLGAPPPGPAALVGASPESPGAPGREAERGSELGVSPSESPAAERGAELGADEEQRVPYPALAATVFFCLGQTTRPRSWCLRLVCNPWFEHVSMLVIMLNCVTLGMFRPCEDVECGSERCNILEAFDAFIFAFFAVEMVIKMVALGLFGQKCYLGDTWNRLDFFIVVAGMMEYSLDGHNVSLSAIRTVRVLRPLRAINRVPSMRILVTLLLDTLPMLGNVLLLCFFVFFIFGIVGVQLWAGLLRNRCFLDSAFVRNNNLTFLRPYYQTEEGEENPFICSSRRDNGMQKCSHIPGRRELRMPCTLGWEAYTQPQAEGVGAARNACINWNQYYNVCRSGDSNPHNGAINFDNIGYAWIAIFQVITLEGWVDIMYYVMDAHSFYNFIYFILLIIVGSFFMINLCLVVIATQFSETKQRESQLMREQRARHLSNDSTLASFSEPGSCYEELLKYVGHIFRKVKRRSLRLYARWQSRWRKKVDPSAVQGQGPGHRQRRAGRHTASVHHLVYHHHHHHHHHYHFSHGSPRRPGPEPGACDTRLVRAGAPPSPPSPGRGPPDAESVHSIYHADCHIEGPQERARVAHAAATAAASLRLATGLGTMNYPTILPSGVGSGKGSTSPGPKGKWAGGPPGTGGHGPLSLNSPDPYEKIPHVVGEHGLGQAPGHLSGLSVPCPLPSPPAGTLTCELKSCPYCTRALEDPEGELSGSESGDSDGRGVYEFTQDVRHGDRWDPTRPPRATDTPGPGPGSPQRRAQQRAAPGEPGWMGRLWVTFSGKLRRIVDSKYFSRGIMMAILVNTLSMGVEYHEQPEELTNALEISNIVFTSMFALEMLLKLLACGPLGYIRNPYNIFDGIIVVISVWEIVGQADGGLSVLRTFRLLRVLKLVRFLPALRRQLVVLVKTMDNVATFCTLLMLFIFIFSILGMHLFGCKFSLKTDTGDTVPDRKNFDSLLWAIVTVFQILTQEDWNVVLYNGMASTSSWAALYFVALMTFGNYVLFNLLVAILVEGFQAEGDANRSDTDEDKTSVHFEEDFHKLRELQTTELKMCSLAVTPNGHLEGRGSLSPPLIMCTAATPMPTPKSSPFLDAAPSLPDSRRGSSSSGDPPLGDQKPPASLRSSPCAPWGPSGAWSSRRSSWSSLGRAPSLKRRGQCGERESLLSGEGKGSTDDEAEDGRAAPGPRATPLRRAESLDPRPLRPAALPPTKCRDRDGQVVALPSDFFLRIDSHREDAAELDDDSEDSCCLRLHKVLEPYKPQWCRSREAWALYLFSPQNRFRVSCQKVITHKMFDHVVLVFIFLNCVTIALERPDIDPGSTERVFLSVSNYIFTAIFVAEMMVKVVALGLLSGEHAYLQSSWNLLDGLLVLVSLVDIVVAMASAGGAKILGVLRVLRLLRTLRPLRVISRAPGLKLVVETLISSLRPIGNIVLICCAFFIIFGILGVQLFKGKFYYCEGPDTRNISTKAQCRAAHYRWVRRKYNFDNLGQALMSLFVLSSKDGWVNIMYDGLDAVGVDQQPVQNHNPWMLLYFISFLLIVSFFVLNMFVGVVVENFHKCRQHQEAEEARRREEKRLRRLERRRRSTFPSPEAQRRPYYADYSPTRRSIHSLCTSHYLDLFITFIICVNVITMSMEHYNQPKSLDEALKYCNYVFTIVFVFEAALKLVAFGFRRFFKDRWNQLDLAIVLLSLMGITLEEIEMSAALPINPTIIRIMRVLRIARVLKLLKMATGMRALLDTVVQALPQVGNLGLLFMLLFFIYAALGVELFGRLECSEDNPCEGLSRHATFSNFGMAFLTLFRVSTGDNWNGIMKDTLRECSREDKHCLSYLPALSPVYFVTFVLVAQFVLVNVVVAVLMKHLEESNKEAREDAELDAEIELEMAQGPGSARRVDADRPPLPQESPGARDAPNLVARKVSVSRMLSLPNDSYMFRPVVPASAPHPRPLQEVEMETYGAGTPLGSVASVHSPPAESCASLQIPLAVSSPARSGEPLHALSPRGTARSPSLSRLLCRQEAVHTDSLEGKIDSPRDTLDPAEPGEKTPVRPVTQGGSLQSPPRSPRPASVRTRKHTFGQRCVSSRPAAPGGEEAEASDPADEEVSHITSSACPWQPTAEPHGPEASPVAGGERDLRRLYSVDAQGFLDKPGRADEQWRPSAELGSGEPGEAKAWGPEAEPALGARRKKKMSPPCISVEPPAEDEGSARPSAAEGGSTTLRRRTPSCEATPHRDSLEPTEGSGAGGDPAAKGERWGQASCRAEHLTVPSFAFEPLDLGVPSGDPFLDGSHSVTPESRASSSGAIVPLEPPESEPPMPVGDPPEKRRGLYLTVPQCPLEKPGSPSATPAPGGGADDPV

[10] = target: T3, Microphthalmia-associated transcription factor (Homo sapiens, UniProt O75030); test: reducers of TRPM1 reporter luminescence, concentration series – cell-based, SK-MEL-5, cherry-picked, set 3, MITF inhibitor project, dose response (AID 493073); format: functional;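 also: SK-MEL-5 melanoma cells with luciferase driven by the MITF target TRPM1 promoter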
T3 sequence (O75030 whole entry): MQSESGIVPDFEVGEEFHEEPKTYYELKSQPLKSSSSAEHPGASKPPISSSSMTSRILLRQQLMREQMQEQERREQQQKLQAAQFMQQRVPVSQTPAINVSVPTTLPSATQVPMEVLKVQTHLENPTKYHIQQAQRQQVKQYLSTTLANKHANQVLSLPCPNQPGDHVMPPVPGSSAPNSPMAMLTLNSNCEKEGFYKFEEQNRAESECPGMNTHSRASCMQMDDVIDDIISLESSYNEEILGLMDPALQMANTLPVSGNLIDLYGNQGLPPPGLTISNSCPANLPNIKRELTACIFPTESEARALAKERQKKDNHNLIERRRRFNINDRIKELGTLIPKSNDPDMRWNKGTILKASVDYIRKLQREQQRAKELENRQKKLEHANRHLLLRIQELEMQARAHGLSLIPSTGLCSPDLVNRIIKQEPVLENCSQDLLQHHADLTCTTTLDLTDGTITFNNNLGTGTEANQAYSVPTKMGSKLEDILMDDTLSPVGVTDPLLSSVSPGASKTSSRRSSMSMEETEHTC

[11] = target: T4, Estrogen receptor beta (Homo sapiens, UniProt Q92731);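 also: recombinant ER-beta bound to coactivator SRC1 peptide in presence of estradiol agonist; inhibitors block coactivator peptide binding and lower the FRET signal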
T4 sequence (Q92731 whole entry): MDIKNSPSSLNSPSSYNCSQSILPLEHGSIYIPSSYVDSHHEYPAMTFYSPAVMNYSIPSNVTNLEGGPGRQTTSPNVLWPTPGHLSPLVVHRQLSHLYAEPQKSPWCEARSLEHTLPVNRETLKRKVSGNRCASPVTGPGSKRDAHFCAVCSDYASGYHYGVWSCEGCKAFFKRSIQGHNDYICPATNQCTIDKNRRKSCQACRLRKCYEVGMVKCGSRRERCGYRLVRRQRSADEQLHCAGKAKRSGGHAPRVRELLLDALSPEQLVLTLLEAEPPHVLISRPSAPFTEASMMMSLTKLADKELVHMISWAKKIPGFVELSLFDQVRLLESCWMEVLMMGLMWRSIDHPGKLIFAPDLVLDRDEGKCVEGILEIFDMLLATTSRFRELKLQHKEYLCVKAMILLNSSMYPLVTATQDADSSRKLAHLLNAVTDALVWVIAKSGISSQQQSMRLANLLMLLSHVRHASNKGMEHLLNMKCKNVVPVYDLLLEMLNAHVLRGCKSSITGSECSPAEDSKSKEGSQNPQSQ

[12] = target: T4, Estrogen receptor beta; test: blockers of SRC-3 recruitment to ERβ – biochemical, ELISA, streptavidin-HRP readout, orthogonal assay, confirmation (AID 1060)
[13] = test system: BJ; test: cells; format: functional, cell-based; settings: Homo sapiens
[14] = test system: BJ; test: BJ-TERT fibroblast viability loss – cell-based, RAS-independent, luminescence, dose response (AID 1933); format: functional; settings: Homo sapiens
[15] = DRD fibroblast viability loss – cell-based, non-viral oncogenic, luminescence, dose response (AID 1934); format: functional; settings: Homo sapiens
[16] = target: T5, Heat shock factor protein 1 (Mus musculus, UniProt P38532); test: decrease of HSF1-responsive luciferase luminescence – cell-based, NIH3T3, dose retest, confirmation (AID 2382); format: functional;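 also: NIH3T3 fibroblasts with HSF1-driven luciferase reporter stressed by proteasome inhibitor MG132; luminescence from HSF1-driven luciferase expression after 8 hours of MG132 stress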
T5 sequence (P38532 whole entry): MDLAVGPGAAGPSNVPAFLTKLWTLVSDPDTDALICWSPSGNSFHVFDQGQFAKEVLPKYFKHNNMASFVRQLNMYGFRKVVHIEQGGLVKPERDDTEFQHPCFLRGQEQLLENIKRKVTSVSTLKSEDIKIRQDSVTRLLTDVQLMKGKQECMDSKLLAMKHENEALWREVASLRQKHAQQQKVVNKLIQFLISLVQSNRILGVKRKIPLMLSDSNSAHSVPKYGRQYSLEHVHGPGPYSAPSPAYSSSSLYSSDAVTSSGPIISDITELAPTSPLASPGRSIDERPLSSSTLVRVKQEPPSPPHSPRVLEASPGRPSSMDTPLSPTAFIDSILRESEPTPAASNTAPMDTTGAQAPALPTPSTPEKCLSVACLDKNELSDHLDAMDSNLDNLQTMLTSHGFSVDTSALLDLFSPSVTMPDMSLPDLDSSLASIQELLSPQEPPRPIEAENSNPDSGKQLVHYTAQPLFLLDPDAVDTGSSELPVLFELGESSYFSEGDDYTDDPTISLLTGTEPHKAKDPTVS

[17] = target: T6, Zinc finger protein mex-5 (Caenorhabditis elegans, UniProt Q9XUB2); test: potency of MEX-5 RNA-binding blockers – biochemical, C. elegans, fluorescence polarization, dose response (AID 1960)
T6 sequence (Q9XUB2 whole entry): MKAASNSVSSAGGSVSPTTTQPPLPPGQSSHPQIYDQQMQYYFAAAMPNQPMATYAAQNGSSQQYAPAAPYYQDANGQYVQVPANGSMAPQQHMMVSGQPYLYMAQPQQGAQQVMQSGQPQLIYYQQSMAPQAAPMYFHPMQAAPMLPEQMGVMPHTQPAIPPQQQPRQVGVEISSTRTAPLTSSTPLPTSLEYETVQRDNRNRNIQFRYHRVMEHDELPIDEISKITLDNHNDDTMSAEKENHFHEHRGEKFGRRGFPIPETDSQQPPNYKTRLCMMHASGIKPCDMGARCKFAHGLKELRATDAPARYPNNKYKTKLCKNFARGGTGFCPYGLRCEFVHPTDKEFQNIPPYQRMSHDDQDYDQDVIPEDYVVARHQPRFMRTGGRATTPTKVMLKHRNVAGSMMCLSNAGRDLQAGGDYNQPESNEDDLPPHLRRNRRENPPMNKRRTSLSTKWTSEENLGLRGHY

[18] = target: T7, RNA-binding protein pos-1 (Caenorhabditis elegans, UniProt G5EF15); test: disruptors of C. elegans POS-1 RNA interaction – biochemical, fluorescence polarization, dose response (AID 1964);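 also: purified POS-1 fused to maltose binding protein made in E. coli; potency of compounds blocking POS-1 binding to fluorescent RNA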
T7 sequence (G5EF15 whole entry): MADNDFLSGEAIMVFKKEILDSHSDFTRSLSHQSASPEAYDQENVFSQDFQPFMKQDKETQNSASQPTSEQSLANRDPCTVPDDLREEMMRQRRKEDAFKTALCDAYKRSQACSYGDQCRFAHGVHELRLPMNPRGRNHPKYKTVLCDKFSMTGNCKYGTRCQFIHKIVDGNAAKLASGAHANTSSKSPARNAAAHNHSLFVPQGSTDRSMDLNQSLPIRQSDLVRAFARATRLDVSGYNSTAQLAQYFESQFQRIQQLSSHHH

[19] = Vero E6 cell cytotoxicity, dose response, cytotoxicity control for non-replicating M. tuberculosis project, secondary assay (AID 492998); format: functional, VeroE6; settings: Vero C1008
[20] = cells; format: functional
[21] = target: Nonstructural protein 1 (Influenza A virus, UniProt Q194T2); format: functional, Influenza A virus (A/California/07/2009(H1N1))
Nonstructural protein 1, sequence (Q194T2 whole entry): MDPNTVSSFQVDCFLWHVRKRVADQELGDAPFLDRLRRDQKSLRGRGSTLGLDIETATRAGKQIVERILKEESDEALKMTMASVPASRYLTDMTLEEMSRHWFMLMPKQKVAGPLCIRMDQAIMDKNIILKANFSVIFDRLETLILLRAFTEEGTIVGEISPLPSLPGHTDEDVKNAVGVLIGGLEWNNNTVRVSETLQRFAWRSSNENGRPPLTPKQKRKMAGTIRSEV

[22] = THP-1 cell cytotoxicity, dose response, cytotoxicity control for non-replicating M. tuberculosis project (AID 489025); format: functional

With `Cc1noc(C)c1COc1ccc(CC(=O)NCc2ccccc2)cc1` the IC50 [1] was > 80 µM (inactive).

For `O=C(Oc1ccc2ccc(=O)oc2c1)c1cccs1`, the IC50 [2] was 7.8 µM (active).

For `Cc1ccc(N)c(N)c1`, the AC50 [3] was 25.1 µM (inconclusive).

With `CC1CCCN(C(=O)C2CCCN(S(=O)(=O)c3cccc4nsnc34)C2)C1` (stereo not given) the IC50 [2] was > 50 µM (inactive).

With `COc1ccc(Br)cc1CNC(=O)C1CCCN(c2nc3ccccc3o2)C1` (stereo not given) the IC50 [4] was > 50 µM (not active).

In the case of `O=C(Nc1ccc(Br)cc1)C1CC(O)CN1C(=O)Oc1ccccc1` (stereo not given), the AC50 [5] is reported as 42.7 µM (active).

With `O=C(Nc1ccsc1C(=O)NC1CCCCC1)c1ccccc1` the AC50 [5] was 26 µM (active).

For `CCc1ccc(/C=C2\SC(=S)N(CCC(=O)Nc3cc(C)on3)C2=O)cc1`, the IC50 [6] was > 80 µM (inactive).

In the case of `Cc1ccc(NC(=O)Cn2c(=O)oc3cc(S(=O)(=O)N4CCC(C)CC4)ccc32)cc1C`, the IC50 [7] is reported as 24.4 µM (active), the AC50 [8] is reported as 8.95 µM (active) and the EC50 [9] is reported as 5.17 µM (active).

With `COCCNC(=O)CSCc1nc(-c2ccc(SC)cc2)oc1C` the IC50 [6] was > 80 µM (inactive).

In the case of `CCOCC(=O)Nc1ccc(S(=O)(=O)Nc2ncccn2)cc1`, the IC50 [2] is reported as > 50 µM (inactive).

With `CC1(C)Oc2ccc(C(=O)NC3CCCC3)cc2N(CC(=O)NC2CCCC2)C1=O` the IC50 [2] was > 50 µM (inactive).

For `CC(=O)N1CC=CC1(CC(C)C)C(=O)NCC1CC1` (stereo not given), the AC50 [3] was 31.6 µM (inconclusive).

For `Cc1ccc2c(c1)COc1c3ccc(C(=O)O)cc3nn1-2`, the AC50 [10] was 2.23 µM (active) and the IC50 [1] was > 80 µM (inactive).

In the case of `COC(=O)c1cccc(C23CC4(C2)[C@H](CN(Cc2ccc(-c5ccccc5)cc2)[C@@H]4c2ccccc2)C3c2ccccc2)c1` (stereo not given in full), the AC50 [3] is reported as 15.8 µM (inconclusive).

With `O=C(CCCN1C(=O)/C(=C/c2ccccc2Cl)SC1=S)Nc1ccccn1` the IC50 [6] was > 80 µM (inactive).

In the case of `O=C(c1cccc(F)c1)N1CCN(C(=O)c2cc3ncc(Br)cn3n2)CC1`, the IC50 [4] is reported as 33.4 µM (not active), the IC50 [11] is reported as 11.5 µM (active) and the IC50 [12] is reported as 1.16 µM (not active).

In the case of `Cc1cc(C(=O)N2CC=C(c3ccccc3)CC2)c2ccccc2n1`, the EC50 [13] is reported as 86.7 µM (active), the EC50 [14] is reported as 1.32 µM (active) and the EC50 [15] is reported as 0.653 µM (active). For the same compound, the IC50 [1] was > 80 µM (inactive).

For `CCN1CCc2nc(NC(=O)Cc3ccc4c(c3)OCCO4)sc2C1`, the IC50 [4] was 28.8 µM (active).

In the case of `NC1=C(c2nc3ccccc3[nH]2)C(=O)CN1c1ccc(CC(=O)O)cc1`, the EC50 [16] is reported as > 195 µM (not active), the IC50 [11] is reported as 25.9 µM (active) and the EC50 [17] is reported as 1.59 µM (active). For the same compound, the IC50 [12] was < 0.023 µM (not active) and the EC50 [18] was 5.25 µM (inconclusive).

In the case of `O=C(Nc1nc(-c2ccccn2)cs1)c1ccc([N+](=O)[O-])o1`, the AC50 [8] is reported as 2.11 µM (active), the CC50 [19] is reported as 4.61 µM (active) and the IC50 [20] is reported as 4.38 µM (active). The AC50 [10] was 10.8 µM (active), the IC50 [21] was 11.7 µM (active) and the CC50 [22] was 9.27 µM (active).

In the case of `CN(CC(=O)NCCN1CCOCC1)S(=O)(=O)c1ccc(Cl)cc1`, the AC50 [5] is reported as 23.2 µM (active).

For `COc1ccc2c(=O)c(-c3ccccc3)coc2c1`, the AC50 [3] was 39.8 µM (inconclusive).
